How the values were obtained:
U 937 cells = test: cAMP levels of U 937 cells; assay type: cell-based
Protocol: U 937 cells were grown in stationary suspension culture in RPMI 1640 containing 10% fetal calf serum (FCS) and 2 mM L-glutamine at 37° C. in a humidified atmosphere of 5% CO2 and 95% air. The cells were diluted with fresh medium (1/10, v/v) twice a week. After three days in culture, U 937 cells were centrifuged (1000×G for 10 min) and incubated for 24 hrs in RPMI 1640 medium containing 10% CPSR 1 (delipidated FCS) and 2 mM L-glutamine. Subsequently the cells were incubated in the delipidated FCS medium containing cholesterol (10-60 μg/ml), as compared with solvent alone (ethanol, 0.5% v/v, final concentration) for (2, 4 or 24 hrs).
Cyclic AMP in supernatants from cholesterol-treated and control cells, were measured by the Rianen [^125I]cAMP-RIA Kit. Briefly, cholesterol (60 μg/ml, 24 hrs) or cholesterol vehicle (ethanol) were added after 24 hrs cell incubation in delipidated FCS medium. Cells were subsequently washed three times and resuspended (5×10^6, final concentration) in Hanks Hepes (HH)-buffer, pH 7.4 with ascorbinic acid (10 mM) and cAMP-phosphodiesterase inhibitor IBMX (1 mM). Cell suspension (100 μl) was added to 400 μl of the cAMP buffer for 30 min at 20° C. […] Values are from one experiment (representative of three) expressed as pmol cAMP per 10^6 cells. Total proteins were measured by standard procedure.

eosinophils [1] = test: paf metabolism by intact eosinophils; assay type: in vitro ADME, human; settings: binding conditions
Protocol: Cells were then separated by vacuum filtration and phospholipids were extracted. Briefly, filters were placed in 500 μl water. […] High pressure liquid chromatography (HPLC) was performed using standard procedure with dichloromethane/methanol/water (50:50.5, by vol) and eluted with a flow rate of 1 ml/min. The radioactivity was measured in the fractions after subtraction of the background values.

acetylhydrolase = acetylhydrolase activity, kinetic constants; assay type: biochemical, human
Protocol: Acetylhydrolase activity was measured in lysates of resting platelets or platelets stimulated with thrombin (0.5 IU/ml, 1 min, 37° C.), in supernatants of thrombin-activated platelets with or without acid-treated (inactivation of acetylhydrolase) plasma and in native plasma. Samples were incubated for 10 min at 37° C. in the presence of 0.1 μCi [^3H]acetyl paf and concentrations of unlabeled paf varying from 5 to 35 μM. The microenvironment modulates the acetylhydrolase indicating the origin of plasma acetylhydrolase from activated platelets.

[2] = target: T1, paf receptors on neutrophils (PMN) (Homo sapiens, UniProt P25105); test: [^3H]paf binding to intact human neutrophils (PMN); settings: for [^3H]paf binding: 20° C., 30 min
T1 construct: Neutrophils (PMN) were prepared from venous blood (40 ml) from normal donors; endogenous in cells; host or cells: intact neutrophils (PMN) from venous blood of normal donors
T1 sequence (P25105 whole entry): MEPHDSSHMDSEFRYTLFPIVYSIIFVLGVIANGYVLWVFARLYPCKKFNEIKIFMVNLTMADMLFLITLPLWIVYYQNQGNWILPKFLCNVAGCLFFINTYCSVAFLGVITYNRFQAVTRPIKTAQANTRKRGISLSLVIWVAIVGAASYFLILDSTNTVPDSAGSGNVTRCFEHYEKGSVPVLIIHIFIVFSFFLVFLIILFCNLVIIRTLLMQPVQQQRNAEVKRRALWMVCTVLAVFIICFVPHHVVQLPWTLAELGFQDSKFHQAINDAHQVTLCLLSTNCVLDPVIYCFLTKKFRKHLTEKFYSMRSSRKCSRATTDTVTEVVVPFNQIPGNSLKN
Protocol: (§2) Neutrophils (PMN) were prepared from venous blood (40 ml) from normal donors, anticoagulated with citric acid dextrose (7:1, v/v) was sedimented for 30 to 45 min in gelatin 0.3% final (Plasmagel®). Twenty ml of supernatant were layered on 10 ml Ficoll Hypaque (d=1.077) and centrifuged (400×g, 20 min, 20° C.). The cell pellet containing PMN (95%) was resuspended in 500 μl Tyrode's buffer (pH=7.4). Erythrocyte lysis was performed by adding 3 volumes of distilled water for 40 sec. followed by 1 volume NaCl (3.5%, w/v). PMN were then washed twice in Tyrode's buffer (centrifugation at 370×g at 20° C. for 10 min). Cell concentration was adjusted to 5×10^7 per ml.
(§3) Binding studies were performed using, for example, intact neutrophils (PMN) or intact human blood eosinophils. PMN (2.5×10^6) or eosinophils (2.5×10^5) were suspended in 500 μl Tyrode's buffer supplemented with 1.3 mM CaCl2, 1 mM MgCl2 and 0.25% (v/v) fatty acid-free bovine serum albumin (BSA, w/v) were incubated with [^3H]paf (0.325-6.5 nM) either for 30 min at 20° C. or for 20 hrs at 4° C. Non-specific binding was assessed with the unlabeled ligands either paf (500 nM) or the receptor antagonist WEB 2086 (1 μM or 400 nM).
In a second set of experiments, [^3H]paf binding was performed by adding 3.25 nM [^3H]paf to PMN, simultaneously with low dose (5 to 50 nM) of paf, lyso paf, the enantiomer of paf or 2-lyso phosphatidylcholine (LPC) for 30 min at 20° C. [^3H]paf binding was also measured in the presence of the phorbol ester 4-phorbol-12-myristate-13-acetate (PMA, 1 to 16 nM) either added simultaneously with [^3H]paf or preincubated 15 min at 37° C. previously. […] After the binding procedure, cells were separated from their suspending medium by filtration in a millipore vacuum system with GF/C filters. Filters were washed with 10 ml Tyrode's buffer at 4° C. and radioactivity was assessed by scintillation. Cell-bound radioactivity on the filters after subtraction of blanks (filter-bound radioactivity in the absence of cells) was expressed in fmol [^3H]paf bound per 2.5×10^6 PMN or 2.5×10^5 eosinophils.

[3] = tested on: lyso paf receptors on neutrophils (PMN); test: [^3H]lyso paf binding to neutrophils (PMN); parameters: species or system human; settings: 20° C.
Protocol: as §2
The binding of [^3H]lyso paf (0.325-0.5 nM) was measured after 30 min incubation at 20° C. in the absence or presence of an excess of unlabeled lyso paf (500 nM), paf (500 nM) or WEB 2086 (1 μM). The effect of low dose paf (5 nM) on the binding of [^3H]lyso paf was also investigated. […] After the binding procedure, cells were separated from their suspending medium by filtration in a millipore vacuum system with GF/C filters. Filters were washed with 10 ml Tyrode's buffer at 4° C. and radioactivity was assessed by scintillation. Cell-bound radioactivity on the filters after subtraction of blanks (filter-bound radioactivity in the absence of cells) was expressed in fmol [^3H]paf bound per 2.5×10^6 PMN or 2.5×10^5 eosinophils.

[4] = target: T2, paf receptors on eosinophils (Homo sapiens, UniProt P25105); test: [^3H]paf binding to intact human eosinophils; settings: for specific [^3H]paf binding: 20° C., 30 min
T2 construct: endogenous in cells; host or cells: intact human blood eosinophils (about 96% pure)
T2 sequence (P25105 whole entry): as above
Protocol: Eosinophils were also prepared under sterile conditions. Blood (400 ml) was mixed with 10% (v/v) dextran. The supernatant was carefully deposited on a metrizoate/ficoll suspension (d=1.148) after sedimentation of red blood cells and centrifuged (400×g: 40 min). Erythrocyte lysis was performed by adding 3 v. of distilled water for 40 sec, followed by 1 v. NaCl (3.5%, w/v). Cells were suspended in 500 μl pH 7.4 Tyrode's buffer, centrifuged (1900 rpm×10 min) and resuspended (5×10^6 cells/ml) in Tyrode's (0.25% BSA) without Ca^2+. The eosinophils fraction at 1×10^6 cells/ml contained 96±5% eosinophils, 3±3% neutrophils, 1±2% mononuclear cells and no free platelets (mean±s.d., n=3).
as §3
Eosinophils were added to Tyrode's (0.25% BSA, 1.3 mM CaCl2, 1 mM MgCl2) containing [3H]paf (0.325-6.5 nM) in the absence or presence of unlabeled paf, lyso paf, enantio-paf or lyso-phosphatidylcholine (LPC) (5, 10, 50, 500 nM) and/or the specific paf receptor antagonist WEB 2086 (400 nM). After the binding procedure, cells were separated from their suspending medium by filtration in a millipore vacuum system with GF/C filters. Filters were washed with 10 ml Tyrode's buffer at 4° C. and radioactivity was assessed by scintillation. Cell-bound radioactivity on the filters after subtraction of blanks (filter-bound radioactivity in the absence of cells) was expressed in fmol [^3H]paf bound per 2.5×10^6 PMN or 2.5×10^5 eosinophils.

human platelets = test: acetylhydrolase release from activated platelets; assay type: cell-based; settings: Thrombin 0.5 IU/ml; for acetylhydrolase release: Paf 500 nM
Protocol: (§4) Results are expressed as mean±S.D. or S.E. and statistics were performed using the “Mann Whitney” test (n=3, n=5 or n=6 as indicated).

PMN = test: cytosolic free calcium (fura-2) in PMN; assay type: cell-based, human; settings: 1 to 500 nM; CaCl2 1.3 mM or EGTA 2 mM
Protocol: (§1) The concentration of cytosolic free calcium [Ca^2+]i was measured using the [Ca^2+]i indicator fura-2-acetoxymethyl ester (fura-2). […] The spectrofluorophotometer was programmed to shuttle between the two excitation wavelengths of 340 and 380 nm every 5 sec while keeping the emission wavelength of 505 nm. […] Background values were subtracted from all data. The intracellular Ca^2+ was calculated with the formula [[…] is KD of the fura-2 multiplied with the quotient of the fluorescence at 380 nm from the minimal and the maximal [Ca^2+]i fluorescence.

platelets = test: paf-mediated platelet aggregation; assay type: cell-based; settings: BSA […]; for EC50: Platelet, 0.05 h, 3 min aggregation
Protocol: as §4

eosinophils [5] = test: cytosolic free calcium (fura-2) in eosinophils; assay type: cell-based, human; settings: 1-100 nM; Ca^2+ free buffer, EGTA 2 mM
Protocol: as §1

[6] = source of acetylhydrolase: (1) Platelets
[7] = source of acetylhydrolase: (2) Thrombin-activated platelets
[8] = source of acetylhydrolase: (3) Supernatant from (2)
[9] = source of acetylhydrolase: (4) Native plasma

CCCCCCCCCCCCCCCCCCOC[C@H](COP(=O)([O-])OCC[N+](C)(C)C)OC(C)=O [paf, 1-octadecyl-2-acetyl-sn-glycero-3-phosphocholine]
cAMP in response to paf (U 937 cells): dose dependent fall in cAMP
metabolism of added paf (eosinophils [1]): did not metabolize
Km (acetylhydrolase; [6]): 8.3 ± 1.5 µM
Vmax (acetylhydrolase; [6]): 0.3 nmol/min/mg prot.
Km (acetylhydrolase; [7]): 10.6 ± 1.5 µM
Vmax (acetylhydrolase; [7]): 0.3 nmol/min/mg prot.
Km (acetylhydrolase; [8]): 7.9 ± 1.5 µM
Vmax (acetylhydrolase; [8]): 1.4 nmol/min/mg prot.
Km (acetylhydrolase; [9]): 5.3 ± 0.5 µM
Vmax (acetylhydrolase; [9]): 1.4 nmol/min/mg prot.
Kd ([2]; 4° C.): 0.44 nM
binding sites (high affinity) on neutrophils ([2]; 4° C.): 3612 binding sites
[^3H]paf binding ([2]; Add. 5 nM, WEB 2086 1 μM): 376 ± 21 fmol [^3H]paf bound per 2.5×10^6 PMN
[^3H]paf binding ([2]; paf 5 nM, preincubation 0 min at 37° C.): 414 fmol [^3H]paf bound per 2.5×10^6 PMN
[^3H]paf binding ([2]; paf 5 nM, preincubation 15 min at 37° C.): 331 fmol [^3H]paf bound per 2.5×10^6 PMN
effect of excess unlabeled ligand on [^3H]paf binding ([2]; paf 500 nM, WEB 2086 1 μM): inhibited
effect of unlabeled ligand on [^3H]lyso paf binding ([3]; excess unlabeled paf or lyso paf 500 nM, WEB 2086 1 μM): increased
binding of […] [^3H]lyso paf ([3]; paf 5 nM, increased from 197.0±4.5): 255.0±10.5 fmol per 2.5×10^6 PMN
binding sites per eosinophil [4]: 8.6×10^4 sites per eosinophil
specific [^3H]paf binding, maximal plateau values ([4]; 20 hrs at 4° C., assessed with unlabeled paf 500 nM or WEB 2086 400 nM): 14.0±9.0 fmol per 2.5×10^5 cells
Kd ([4]; 20 hrs at 4° C., read-out: binding affinity (Kd) on eosinophils): 5.5 nM
specific [^3H]paf binding ([4]; addition 5 nM, WEB 2086 400 nM): 3.8 ± 5.0 fmol per 2.5×10^5 cells
specific [^3H]paf binding ([4]; addition 10 nM, WEB 2086 400 nM): 4.3 ± 2.9 fmol per 2.5×10^5 cells
specific [^3H]paf binding ([4]; addition 50 nM, WEB 2086 400 nM): 7.2 ± 5.4 fmol per 2.5×10^5 cells
specific [^3H]paf binding ([4]; addition 500 nM): 12.5 ± 6.9 fmol per 2.5×10^5 cells
released of the total acetylhydrolase (human platelets; paf 500 nM, mean±S.E., n=3): 10.3±1.5%
acetylhydrolase release (human platelets; stimulation 0 sec): 1.0 ± 1.0 percentage of the total content of acetylhydrolase
acetylhydrolase release (human platelets; stimulation 15 sec): 8.2 ± 3.2 percentage of the total content of acetylhydrolase
acetylhydrolase release (human platelets; stimulation 30 sec): 7.8 ± 2.6 percentage of the total content of acetylhydrolase
acetylhydrolase release (human platelets; stimulation 60 sec): 9.5 ± 4.0 percentage of the total content of acetylhydrolase
acetylhydrolase release (human platelets; stimulation 120 sec): 10.0 ± 1.4 percentage of the total content of acetylhydrolase
acetylhydrolase release (human platelets; stimulation 180 sec): 12.6 ± 3.8 percentage of the total content of acetylhydrolase
acetylhydrolase release (human platelets; stimulation 300 sec): 10.3 ± 1.5 percentage of the total content of acetylhydrolase
cytoplasmic Ca^2+ flux in response to agonist (PMN): concentration-dependent entry of Ca^2+
concentration for maximal aggregation (platelets; 20° C.): 2.6 ± 0.5 nM
concentration for maximal aggregation (platelets; 37° C.): 5.0 ± 0.5 nM
EC50 (platelets; 20° C.): 0.4 ± 0.1 nM
EC50 (platelets; 37° C.): 0.9 ± 0.2 nM
[Ca^2+]i rise in response to agonist (eosinophils [5]): concentration-dependent elevation of [Ca^2+]i
